The source of these data is BindingDB's records for doi:10.1016/j.bmcl.2004.07.050 (University of Georgia, 2004).

The structures appear in SMILES notation.

The target of this experiment is Integrase (HIV-1). Nature of the experiment: Inhibitory activity against strand transfer in wild-type HIV-1 integrase was determined using 21-mer oligonucleotide substrate.

Usually IC50 stands for the concentration at which inhibition is half-maximal. A low value points to inhibition by little substance.

In turn, `Nc1ccn(C2COC(COP(=O)(O)OC3CC(n4cnc5c(N)ncnc54)OC3COP(=O)(O)O)C2O)c(=O)n1` (configuration not stated) [[4-(4-amino-2-oxo-1,2-dihydropyrimidin-1-yl)-3-hydroxyoxolan-2-yl]methyl [5-(6-amino-9H-purin-9-yl)-2-[(phosphonatooxy)methyl]oxolan-3-yl] phosphate] registered an IC50 of 65 µM.
Take `Nc1ncnc2c1ncn2C1CC(OP(=O)(O)OCC2OCC(n3cnc4c(N)ncnc43)C2O)C(COP(=O)(O)O)O1` (configuration not stated) [Phosphoric acid 4-(6-amino-purin-9-yl)-3-hydroxy-tetrahydro-furan-2-ylmethyl ester 5-(6-amino-purin-9-yl)-2-phosphonooxymethyl-tetrahydro-furan-3-yl ester]: the IC50 is 41 µM.
